These are literature values, as cited in publication PMC4360375 (Journal of Medicinal Chemistry, 2015).

One data set deals with GABA uptake, rat synaptosome. As to conditions: Figure 2; rat synaptosome GABA uptake; read-out: literature IC50; cited from earlier work.
Turning to `O=C(O)[C@@H]1CCCN(CCCCCC(c2ccccc2)c2ccccc2)C1` [compound 9, OC(=O)[C@@H]1CCCN(C1)CCCCCC(c1ccccc1)c1ccccc1], the half-maximal inhibitory concentration (IC50) was 1590 nM.

The data set is the same for the next values; noted with them: literature data set; ref 10.1016/S0968-0896(01)00148-1; cited from earlier work.
With `O=C(O)[C@@H]1CCCN(CCOc2ccccc2Cc2ccccc2)C1` [An_2001/6_34, O(CCN1C[C@@H](CCC1)C(O)=O)c1ccccc1Cc1ccccc1], the negative-log IC50 (pIC50) was 5.158.
Consider `O=C(O)[C@@H]1CCCN(CCO/N=C(/Cc2ccc(F)cc2)c2ccc(F)cc2)C1` [An_2001/6_17, Fc1ccc(cc1)C\C(=N\OCCN1C[C@@H](CCC1)C(O)=O)\c1ccc(F)cc1], for which the pIC50 is given as 6.036.
In the case of `O=C(O)[C@@H]1CCCN(CCOCCc2ccccc2)C1` [An_2001/6_43, O(CCc1ccccc1)CCN1C[C@@H](CCC1)C(O)=O], the pIC50 is 5.347.
In the case of `O=C(O)[C@@H]1CCCN(CCOCCc2ccccc2-c2ccccc2)C1` [An_2001/6_39, O(CCc1ccccc1-c1ccccc1)CCN1C[C@@H](CCC1)C(O)=O], the negative-log IC50 (pIC50) is 6.959.
As for `O=C(O)[C@@H]1CCCN(CCOCc2ccc3ccccc3c2-c2ccccc2)C1` [An_2001/6_36, O(Cc1ccc2c(cccc2)c1-c1ccccc1)CCN1C[C@@H](CCC1)C(O)=O], the pIC50 is recorded as 5.098.
In the case of `O=C(O)[C@@H]1CCCN(CCO/N=C2\CCCC[C@@H]2c2ccccc2)C1` [An_2001/6_24, O(\N=C\1/CCCC[C@@H]/1c1ccccc1)CCN1C[C@@H](CCC1)C(O)=O], the pIC50 is 6.489.
As to `CC(C)CN(CCOCCN1CCC[C@@H](C(=O)O)C1)c1ccc(F)cc1Cl` [An_2001/6_45, Clc1cc(F)ccc1N(CC(C)C)CCOCCN1C[C@@H](CCC1)C(O)=O], the pIC50 is on record as 6.827.
For `CC(C)C/C=C(/C=N/OCCN1CCC[C@@H](C(=O)O)C1)c1ccccc1` [An_2001/6_22, O(\N=C\C(=C\CC(C)C)\c1ccccc1)CCN1C[C@@H](CCC1)C(O)=O], the pIC50 is recorded as 6.538.
For the compound `O=C(O)[C@@H]1CCCN(CCOc2ccccc2-c2ccccc2)C1` [An_2001/6_33, O(CCN1C[C@@H](CCC1)C(O)=O)c1ccccc1-c1ccccc1], the pIC50 is recorded as 5.235.
Regarding `O=C(O)[C@@H]1CCCN(CCO/N=C(/Cc2ccccc2)c2ccccc2)C1` [An_2001/6_16, O(\N=C(\Cc1ccccc1)/c1ccccc1)CCN1C[C@@H](CCC1)C(O)=O], the pIC50 is 6.87.

Still in this data set, the particulars now being: literature data set; ref 10.1021/jm00064a005; cited from earlier work.
Turning to `Cc1ccsc1/C(=C/CCN1CCC[C@@H](C(=O)O)C1)c1c(C)cccc1C` [An_1993_46, s1ccc(C)c1/C(=C/CCN1C[C@@H](CCC1)C(O)=O)/c1c(cccc1C)C], the pIC50 is on record as 6.602.
As to `Cc1cc(Cl)ccc1/C(=C\CCN1CCC[C@@H](C(=O)O)C1)c1sccc1C` [An_1993_44, Clc1cc(C)c(cc1)\C(=C/CCN1C[C@@H](CCC1)C(O)=O)\c1sccc1C], the pIC50 is on record as 6.959.
For the compound `Cc1ccsc1/C(=C/CCN1CCC[C@@H](C(=O)O)C1)c1cccs1` [An_1993_40, s1ccc(C)c1\C(=C\CCN1C[C@@H](CCC1)C(O)=O)\c1sccc1], the pIC50 was 7.222.
Consider `Cc1ccccc1C(=CCCN1CCC[C@@H](C(=O)O)C1)c1ccccc1C` [An_1993_34, OC(=O)[C@@H]1CCCN(C1)CC\C=C(\c1ccccc1C)/c1ccccc1C], for which the pIC50 was 7.097.

The data set is the same for the next values; noted with them: literature data set; ref 10.1021/jm980492e; cited from earlier work.
For the compound `CN(CCC(c1ccccc1)c1ccccc1)CCN1CCC[C@@H](C(=O)O)C1` [An_1999/4_(R)-35, OC(=O)[C@@H]1CCCN(C1)CCN(CCC(c1ccccc1)c1ccccc1)C], the negative logarithm of the IC50 (pIC50) is listed as 5.244.
On to `O=C(O)[C@@H]1CCCN(CCCCCN(c2ccccc2)c2ccccc2)C1` [An_1999/4_(R)-12, OC(=O)[C@@H]1CCCN(C1)CCCCCN(c1ccccc1)c1ccccc1], for which the pIC50 is on record as 5.86.
For `O=C(O)[C@@H]1CCCN(CCCCCCN(c2ccccc2)c2ccccc2)C1` [An_1999/4_(R)-13, OC(=O)[C@@H]1CCCN(C1)CCCCCCN(c1ccccc1)c1ccccc1], the negative-log IC50 (pIC50) is on record as 6.18.
On to `O=C(O)[C@@H]1CCCN(CCCCCCCC(=O)N(c2ccccc2)c2ccccc2)C1` [An_1999/4_(R)-16], for which the pIC50 is listed as 5.046.
Turning to `O=C(O)[C@@H]1CCCN(CCOCCC(c2ccccc2)c2ccccc2)C1` [compound 8, O(CCC(c1ccccc1)c1ccccc1)CCN1C[C@@H](CCC1)C(O)=O], the pIC50 is listed as 7.26.
Turning to `O=C(O)[C@@H]1CCCN(CCON=C(c2ccccc2)c2ccccc2)C1` [An_1999/4_(R)-7, O(\N=C(\c1ccccc1)/c1ccccc1)CCN1C[C@@H](CCC1)C(O)=O], the pIC50 is 6.863.
Consider `O=C(O)[C@@H]1CCCN(CCCCCCCN(c2ccccc2)c2ccccc2)C1` [An_1999/4_(R)-14], for which the pIC50 is 6.638.
`Cc1ccccc1C(CCOCCN1CCC[C@@H](C(=O)O)C1)c1ccccc1C` [An_1999/4_(R)-32, O(CCC(c1ccccc1C)c1ccccc1C)CCN1C[C@@H](CCC1)C(O)=O]: the pIC50 is 6.444.
Regarding `O=C(O)[C@@H]1CCCN(CCCCCC(c2ccccc2)c2ccccc2)C1` [compound 9, OC(=O)[C@@H]1CCCN(C1)CCCCCC(c1ccccc1)c1ccccc1], the pIC50 is reported as 5.799.
Turning to `O=C(O)C1=CCCN(CCOCCC(c2ccccc2)c2ccccc2)C1` [An_1999/4_30, O(CCC(c1ccccc1)c1ccccc1)CCN1CC(=CCC1)C(O)=O], the pIC50 is 7.319.

Staying with this data set, now noted: literature data set; ref 10.1021/jm981027k; cited from earlier work.
With `Cc1ccccc1/C(=C\OCCN1CCC[C@@H](C(=O)O)C1)c1ccc(F)cc1C` [An_1999/3_99, Fc1cc(C)c(cc1)\C(=C\OCCN1C[C@@H](CCC1)C(O)=O)\c1ccccc1C], the pIC50 is listed as 7.523.
On to `CCc1ccsc1C(=NOCCN1CCC[C@@H](C(=O)O)C1)c1sccc1CC` [An_1999/3_87, s1ccc(CC)c1\C(=N\OCCN1C[C@@H](CCC1)C(O)=O)\c1sccc1CC], for which the pIC50 was 7.046.
For the compound `O=C(O)[C@@H]1CCCN(CCO/C=C(/c2ccccc2)c2ccccc2Cl)C1` [An_1999/3_108, Clc1ccccc1\C(=C/OCCN1C[C@@H](CCC1)C(O)=O)\c1ccccc1], the pIC50 is recorded as 7.301.
For `Cc1ccccc1/C(=C\OCCN1CCC=C(C(=O)O)C1)c1ccccc1F` [An_1999/3_72, Fc1ccccc1/C(=C/OCCN1CC(=CCC1)C(O)=O)/c1ccccc1C], the pIC50 is 7.699.
With `Cc1cc(F)ccc1C(=COCCN1CCC=C(C(=O)O)C1)c1ccc(F)cc1C` [An_1999/3_100, Fc1cc(C)c(cc1)\C(=C\OCCN1CC(=CCC1)C(O)=O)\c1ccc(F)cc1C], the pIC50 is recorded as 7.097.
As for `Cc1ccccc1/C(=N\OCCN1CCC[C@@H](C(=O)O)C1)c1ccccc1F` [An_1999/3_89, Fc1ccccc1/C(=N/OCCN1C[C@@H](CCC1)C(O)=O)/c1ccccc1C], the pIC50 is recorded as 7.398.
For `Cc1ccccc1/C(=N\OCCN1CCC[C@H](C(=O)O)C1)c1cccc(Cl)c1` [An_1999/3_91, Clc1cc(ccc1)/C(=N/OCCN1C[C@H](CCC1)C(O)=O)/c1ccccc1C], the pIC50 is 7.046.
`Cc1ccccc1C(=COCCN1CCC[C@@H](C(=O)O)C1)c1ccccc1C` [An_1999/3_45, O(\C=C(\c1ccccc1C)/c1ccccc1C)CCN1C[C@@H](CCC1)C(O)=O]: the pIC50 is recorded as 7.699.
Take `COc1cccc(/C(=C/OCCN2CCC[C@@H](C(=O)O)C2)c2ccccc2C)c1` [An_1999/3_102, O(C)c1cc(ccc1)/C(=C/OCCN1C[C@@H](CCC1)C(O)=O)/c1ccccc1C]: the pIC50 is reported as 7.097.
As to `Cc1csc(/C(=N/OCCN2CCC[C@H](C(=O)O)C2)c2ccccc2C)c1` [An_1999/3_21, s1cc(cc1/C(=N/OCCN1C[C@H](CCC1)C(O)=O)/c1ccccc1C)C], the pIC50 is 5.062.
Regarding `O=C(O)C1=CCCN(CCOC=C(c2ccccc2Cl)c2ccccc2Cl)C1` [An_1999/3_110, Clc1ccccc1\C(=C\OCCN1CC(=CCC1)C(O)=O)\c1ccccc1Cl], the pIC50 is 7.921.
On to `Cc1ccccc1C(=NOCCN1CCC=C(C(=O)O)C1)c1ccccc1C` [An_1999/3_64, O(\N=C(\c1ccccc1C)/c1ccccc1C)CCN1CC(=CCC1)C(O)=O], for which the negative-log IC50 (pIC50) is given as 7.222.
For the compound `O=C(O)[C@@H]1CCCN(CCO/N=C(/c2ccccc2)c2ccccn2)C1` [compound 11, O(\N=C(\c1ccccc1)/c1ncccc1)CCN1C[C@@H](CCC1)C(O)=O], the pIC50 was 5.684.
Take `O=C(O)C1=CCCN(CCON=C(c2ccccc2)c2ccccc2)C1` [NO-711, O(\N=C(\c1ccccc1)/c1ccccc1)CCN1CC(=CCC1)C(O)=O]: the pIC50 is 7.328.
As to `O=C(O)[C@@H]1CCCN(CCO/C=C(\c2ccccc2)c2ccccc2Cl)C1` [An_1999/3_73, Clc1ccccc1\C(=C\OCCN1C[C@@H](CCC1)C(O)=O)\c1ccccc1], the negative-log IC50 (pIC50) is 7.921.
As to `CCc1ccccc1C(=COCCN1CCC=C(C(=O)O)C1)c1ccccc1CC` [An_1999/3_104, O(\C=C(\c1ccccc1CC)/c1ccccc1CC)CCN1CC(=CCC1)C(O)=O], the pIC50 was 7.301.
Regarding `O=C(O)[C@@H]1CCCN(CCOC=C(c2ccccc2)c2ccccc2)C1` [An_1999/3_47, O(\C=C(\c1ccccc1)/c1ccccc1)CCN1C[C@@H](CCC1)C(O)=O], the pIC50 is given as 7.066.
Regarding `Cc1ccccc1/C(=N\OCCN1CCC=C(C(=O)O)C1)c1cccc(Cl)c1` [An_1999/3_92, Clc1cc(ccc1)/C(=N/OCCN1CC(=CCC1)C(O)=O)/c1ccccc1C], the pIC50 was 6.824.

The same data set, now with this note: literature data set; ref 10.1021/jm990513k; cited from earlier work.
As to `O=C(O)[C@@H]1CCCN(CCON=C2c3ccccc3CCc3ccccc32)C1` [An_2001/5_16, O(\N=C/1\c2c(CCc3c\1cccc3)cccc2)CCN1C[C@@H](CCC1)C(O)=O], the negative-log IC50 (pIC50) is 5.936.
Take `O=C(O)[C@@H]1CCCN(CCOC/C=C2\c3ccccc3CCc3ccc(Cl)cc32)C1` [An_2001/5_35, Clc1cc\2c(CCc3c(cccc3)/C/2=C\COCCN2C[C@@H](CCC2)C(O)=O)cc1]: the pIC50 was 5.603.
`O=C(O)[C@@H]1CCCN(CCON=C2c3cc(Cl)ccc3CCc3ccc(Cl)cc32)C1` [An_2001/5_17, Clc1cc\2c(CCc3c(cc(Cl)cc3)/C/2=N\OCCN2C[C@@H](CCC2)C(O)=O)cc1]: the pIC50 is given as 5.259.
For the compound `O=C(O)[C@@H]1CCCN(CCOCCN2c3ccccc3Oc3ccccc32)C1` [An_2001/5_20, O1c2c(N(c3c1cccc3)CCOCCN1C[C@@H](CCC1)C(O)=O)cccc2], the pIC50 was 5.836.
`O=C(O)[C@@H]1CCCN(CCOCCN2c3ccccc3CCCc3ccccc32)C1` [An_2001/5_33, O(CCN1C[C@@H](CCC1)C(O)=O)CCN1c2c(CCCc3c1cccc3)cccc2]: the pIC50 is reported as 6.071.

The IC50 is the point on the concentration scale where inhibition reaches its midpoint. A word on the pIC50: it is −log10 of the IC50, conventionally taken in molar units.
